The METLIN SMRT retention time set (Domingo-Almenara et al. 2019)

assay: gradient 5% acetonitrile 3 min, to 50% in 2 min, to 85% in 15 min, held 3 min, 100 µL/min; conditions: column: Zorbax Extend-C18 2.1 x 50 mm; eluents: water / acetonitrile, 0.1% formic acid
How it was run: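 Standards, all pure, were combined into mixtures of ~100 molecules and run at 100 μL/min on a Zorbax Extend-C18 column (2.1 × 50 mm, 1.8 μm) with water and acetonitrile, each containing 0.1% formic acid. A coupled quadrupole time-of-flight mass spectrometer operated in positive and negative ionization mode. Retention time values come from computationally picked adduct peaks, each inspected manually.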

| RP-LC retention time | SMILES |
| --- | --- |
| 810 s | Cc1ccccc1OCC(=O)Nc1cnn(C)c(=O)c1N1CCOCC1 |
| 1140 s | CC(C)c1ccc(-n2ccnc(NC(=O)Nc3cccc(F)c3)c2=O)cc1 |
| 838 s | CN(CCCNC(=O)C1CCCN(c2ncc(-c3cccc(F)c3)cn2)C1)c1ccccc1 (centres undefined) |
| 1080 s | CC(C)N1C(=O)C(CC(=O)Nc2cccc(OC(F)(F)F)c2)=C2CCCCC21 (centres undefined) |
| 573 s | Cc1ccccc1CN1CC(=O)NCC12CCCC2 |
| 595 s | Cn1cc(CCN2CCC(C(=O)NCc3cccs3)CC2)c2cccnc21 |
| 805 s | CCCNC(=O)CCc1nc2ccccc2n(CC(=O)Nc2ccc(OC)c(Cl)c2)c1=O |
| 880 s | O=C(c1cncc(NS(=O)(=O)c2ccc(Cl)cc2)c1)N1CCCc2ccccc21 |
| 761 s | O=C1CCSc2ccc(S(=O)(=O)N3CCC(C(=O)NCc4ccccc4)CC3)cc2N1 |
| 660 s | CCCn1c(=O)sc2cc(S(=O)(=O)N3CCC(C(=O)Nc4ncccc4C)CC3)ccc21 |
| 894 s | COC(=O)CN1CN(c2ccc(C)cc2)c2ncccc2S1(=O)=O |
| 829 s | CCN1CCCn2cc(S(=O)(=O)N3CCN(c4ccccc4F)CC3)cc2C1=O |
| 570 s | Cc1noc(C)c1CN1CCC(NC(=O)c2cc(Cl)ccc2F)C1 (centres undefined) |
| 952 s | COC(=O)c1c(NCCN2CCCc3ccccc32)c2cc(F)ccc2[nH]c1=O |
| 745 s | COc1cccc(C(=O)NCCN2CCN(c3ccc(Cl)cc3)CC2)c1 |
| 830 s | Cn1cc(-c2cc3n(n2)CCC(=O)N3CC(=O)NCc2ccccc2Cl)c2ccccc21 |
| 703 s | CCCNc1cc(N2CCCC(CCC(=O)Nc3ccccc3)C2)ncn1 (centres undefined) |
| 747 s | COc1ccc(NC(=O)C2CCCN(c3ncnc4c3oc3ccccc34)C2)cc1 (centres undefined) |

The next lines start with the compound.

| SMILES | RP-LC retention time |
| --- | --- |
| CC1(C)CC(=O)C2=C(C1)Nc1ccccc1N(CC(=O)NCc1cccnc1)C2c1ccco1 (centres undefined) | 614 s |
| O=C(Cc1cccs1)NCCN1CCN(c2ccc(Cl)cc2)CC1 | 583 s |
| O=C(CCCSc1ccc(NC(=O)c2ccc(F)cc2)nn1)Nc1cccnc1 | 586 s |
| Cc1c(C)n(CC(O)CNC(C)c2ccccc2)c2ccccc12 (centres undefined) | 605 s |
| Fc1cccc(-c2nc(-c3ccc4c(c3)ncn4CCN3CCOCC3)no2)c1 | 642 s |
| CNC(=O)c1ccc(-c2nc3cc(NS(=O)(=O)c4ccc(F)c(Cl)c4)ccc3n2C)cc1 | 674 s |
| CCOCc1nc2c(N)nc3ccccc3c2n1CC(C)(C)O | 662 s |
| O=C(NCc1nc(-c2cccs2)no1)c1ccc(Br)cc1 | 892 s |
| CCCNC(=O)C1=Cc2cc(Br)ccc2OC=C1 | 944 s |
| COc1ccc(NC2=NS(=O)(=O)C(c3ccc(F)cc3)=C2C)c(OC)c1 | 929 s |
| CC1=C(c2ccccc2)S(=O)(=O)N=C1N1CCCN(C(=O)c2ccc(C#N)cc2)CC1 | 777 s |
| O=C(Nc1nsc(-c2ccccc2)n1)c1cccs1 | 743 s |
| Cc1cc(N2CCCC2)n2nc(-c3ccc(C(C)(C)C)cc3)nc2n1 | 968 s |
| O=C(COc1ccc(C2=NN(C(=O)c3cccs3)C(c3ccccc3)C2)cc1)NCCO (centres undefined) | 695 s |
| COC(=O)c1ccc(C2CC(=O)NC3=C2C(=O)C(C(=O)OC)C(C)C3)cc1 (centres undefined) | 719 s |
| CCCCNC(=O)c1cn(CC)nc1S(=O)(=O)N1CCN(c2ccccc2OCC)CC1 | 1080 s |
| Cc1c(C(=O)NCC(C)C)cnn1-c1cc(-c2nc(C(C)C)no2)ccn1 | 1010 s |
| CCC1Oc2ccc(S(=O)(=O)N3CCC(C(=O)N4CCCCCC4)CC3)cc2NC1=O (centres undefined) | 842 s |
| O=C(c1nc(-c2ccnc(N3CCCCC3)c2)no1)N1CCCCC1 | 764 s |
| COc1ccc(C2Cn3nnc(-c4nc(-c5ccccc5)no4)c3CO2)cc1 (centres undefined) | 1100 s |
| CC(C)NC(=O)C1CCN(S(=O)(=O)c2cc(C(=O)N3CCCCCC3)cs2)CC1 | 767 s |
| Cc1nc(-c2ccc(-c3noc(CNC(=O)Cc4ccc(Cl)cc4)n3)cc2)cs1 | 990 s |
| O=C(CSc1nc2ccccc2o1)NCCn1nc(-c2ccco2)ccc1=O | 674 s |
| O=C(NCc1ccccn1)C1CN(C(=O)c2c[nH]c3ccccc23)C1 | 541 s |
| Cc1cc(N2CCN(C(=O)Nc3ccccc3Cl)CC2)nc(N2CCOCC2)n1 | 637 s |
| CCOc1ccc(-c2noc(Cn3nc(-c4ccc(C)c(C)c4)ccc3=O)n2)cc1 | 1230 s |
